Common to all, as to test: NCI anticancer screen, dose series, 48 h
The subject of assay [1] is 786-0 renal.
For assay [2], the system named is CCRF-CEM leukemia.
For assay [3], the system named is U251 CNS.
Assay [4] concerns KM12 colon.
For assay [5], the system named is T-47D breast.
Assay [6] deals with OVCAR-3 ovarian.
For assay [7], the system named is RPMI-8226 leukemia.
For assay [8], the system named is SF-268 CNS.
The subject of assay [9] is UACC-257 melanoma.
For assay [10], the system named is HOP-92 NSCLC.

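Five compound concentrations were applied to cells in 96-well plates for 48 hours; endpoints were derived by simple linear interpolation of the resulting dose-response curve. TGI: concentration producing complete growth inhibition.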 Some results are limits rather than exact numbers.

Turning to `NC(CC(O)(c1ccccc1)c1ccccc1)c1ccccc1S` (stereo not drawn), the TGI came to 29.4 µM in assay [1]; 40.7 µM in [2]; 28.3 µM in assay [3]; 25.5 µM in assay [4]; 37.4 µM in assay [5]; 29.5 µM in [6]. The TGI in assay [7] worked out at 68.3 µM; in [8], 24.8 µM; in assay [9], 43.8 µM.

On to `COP(=O)(O)C(N)Cc1c[nH]c2ccccc12` (stereo not drawn), for which the TGI in [2], in assay [3], in [10], in assay [5], in assay [6] and in assay [7] was > 100 µM in each case. For the same compound, the TGI in [9] was > 100 µM.

Turning to `O=C(CSc1nnc(-c2ccc(N=Cc3ccc(Cl)cc3)cc2)o1)Nc1ccc([N+](=O)[O-])cc1`, the TGI in assay [1] was 36.1 µM; in [2], 47.6 µM; in assay [3] it was 37.1 µM; in [7] it was 8.01 µM; in assay [8], 46.1 µM; in assay [9] it was 44.3 µM.

As for `COc1cccc(-c2nccc3c(OCc4ccccc4)c(OC)c(OC)cc23)c1`, the TGI in [2], in assay [3], in assay [4], in assay [10], in [6] and in assay [7] was > 100 µM throughout. In addition, the TGI in assay [8] and in [9] was > 100 µM throughout.

Consider `COc1cc2c(cc1OC)[C@@](C)(C(O)C(O)C(C)(C)O)NCC2` (stereo partly drawn), for which the TGI in [1], in assay [2], in assay [3], in assay [10], in assay [5] and in [6] was > 100 µM each time. The TGI in assay [7], in [8] and in assay [9] was > 100 µM each time.

Turning to `CCCCn1c2ccccc2c2ccc3c(c21)C(=O)C=CC3=O`, the TGI in assay [1], in [3], in assay [4], in assay [10], in assay [6] and in [7] was > 100 µM in each case. For the same compound, the TGI in assay [8] and in assay [9] was > 100 µM each time.

For `Cn1ccnc1CCc1ccc(Cl)c(Cl)c1`, the TGI in [1], in assay [2], in assay [3], in assay [4], in assay [10] and in assay [6] was > 100 µM in each case. Also, the TGI in assay [7], in assay [8] and in [9] was > 100 µM each time.

On to `CC12CCC(C(=Nc3cc(C(F)(F)F)cc(C(F)(F)F)c3)C1=O)C2(C)C` (stereo not drawn), for which the TGI in assay [1] is > 100 µM; in assay [2], > 100 µM; in [3], > 100 µM; in assay [4], 91.7 µM; in assay [5], 74.3 µM; in assay [6] it was > 100 µM. The TGI in assay [7] is 44.7 µM; in assay [8], 84.5 µM; in assay [9] it was > 100 µM.

In the case of `CN(Cc1cnc2nc(N)nc(N)c2n1)c1ccc(C(=O)NC(CCC(=O)NC(CC(P(=O)(O)O)P(=O)(O)O)C(=O)O)C(=O)O)cc1` (stereo not drawn), the TGI in [1], in assay [3], in assay [10], in assay [5], in [6] and in [8] was > 100 µM throughout. The TGI in assay [9] was > 100 µM.

On to `O=C1CS(=O)(=O)C(c2cccc(Oc3ccccc3)c2)N1c1ccccc1` (stereo not drawn), for which the TGI in assay [1] is 37.8 µM; in assay [2], > 100 µM; in assay [3], 33.3 µM; in [4] it was > 100 µM; in assay [10], 32.8 µM; in assay [5], > 100 µM. Further, the TGI in assay [6] came out at 55.1 µM; in [8] it was 75.8 µM; in assay [9], 46 µM.

Turning to `COC([C@@H](OC(=O)c1ccccc1)[C@H](OC(=O)c1ccccc1)C(O)COC(=O)c1ccccc1)n1cc(C)c(=O)[nH]c1=O` (stereo partly drawn), the TGI in [1] is 77 µM; in assay [3], 58.3 µM; in assay [5] it was > 100 µM; in assay [6] it was 97.1 µM; in assay [7], > 100 µM; in assay [8] it was > 100 µM. The TGI in [9] is > 100 µM.

For the compound `N[C@H](CCC(=O)NCP(=O)(O)O)C(=O)O`, the TGI in [1], in assay [3], in [4], in [5], in assay [6] and in assay [7] was > 100 µM each time. In addition, in [9], the TGI was > 100 µM.

Regarding `COc1c2ccsc2c(OC)c2ccsc12`, the TGI in [1], in assay [2], in assay [3], in assay [4], in assay [10] and in assay [5] was > 100 µM each time. Moreover, the TGI in assay [6], in assay [8] and in assay [9] was > 100 µM each time.

Regarding `Cc1c(-c2nnc(-c3ccccc3)o2)c(=O)n(-c2ccccc2)n1C`, the TGI in assay [1], in [2], in assay [3], in [4], in assay [10] and in [6] was > 100 µM in each case. In addition, the TGI in assay [7], in assay [8] and in [9] was > 100 µM in each case.

In the case of `CN(C)c1ccc(/C=C/C(=O)O)cc1`, the TGI in assay [2], in assay [4], in assay [6], in assay [7], in assay [8] and in [9] was > 100 µM in each case.

Take `NC(=Nc1ccccc1)c1ccccc1N`: the TGI in assay [1], in [2], in [3], in [4], in [10] and in assay [6] was > 100 µM each time. Moreover, the TGI in assay [7], in assay [8] and in [9] was > 100 µM in each case.

(Values after PubChem BioAssay (NCI).)
